Reference: patent US8722616B2, “Anti-HIV peptides and methods of use thereof” (priority 2009, dated 2014)
Values after ≈ are worked out from the molar mass of the structure shown. Like-named read-outs stand apart in the source and are kept apart here. No end group written: not given here.

Tests used:
[1] = test system: HIV-1IIIB; experiment: microbe, parasite or virus in culture
Experimental: (§1) Anti-HIV cytopathic effect inhibition assays were conducted as described (Buckheit et al. (1995) Antimicrob. Agents Chemother., 39:2718-2727). In brief, serially diluted peptides were added to a 96-well round bottom microtiter plate in triplicate. CEM-SS cells at a concentration of 2.5×10^3 cells per well and HIV-1IIIB at the appropriate pre-determined titer were sequentially added to the microtiter plate. The cultures were incubated at 5% CO2/37° C. for six days. Following the incubation, the microtiter plates were stained with XTT tetrazolium dye to evaluate the efficacy and toxicity of the test compound(s).
as §1, with “Cytopathic Effect (CPE) Inhibition Assay: The CPE assay was performed” for “Anti-HIV cytopathic effect inhibition assays were conducted”, “as previously” for “as”, “Briefly,” for “In brief,”, “compound was” for “peptides were”

[2] = in vitro; details: human
Experimental: as §1
as §1, with “Cytopathic Effect (CPE) Inhibition Assay: The CPE assay was performed” for “Anti-HIV cytopathic effect inhibition assays were conducted”, “as previously” for “as”, “Briefly,” for “In brief,”, “compound was” for “peptides were”

[3] = test system: CEM-SS cells; experiment: in vitro
Experimental: as §1
as §1, with “Cytopathic Effect (CPE) Inhibition Assay: The CPE assay was performed” for “Anti-HIV cytopathic effect inhibition assays were conducted”, “as previously” for “as”, “Briefly,” for “In brief,”, “compound was” for “peptides were”

[4] = test system: E. coli K12
Excerpt: (§2) The frequently used residues identified in each kingdom may be applied to peptide design in different ways. First, new antimicrobial peptides can be designed based on ‘templates derived from naturally occurring antimicrobial peptides’. […] Second, new antimicrobial peptides can be designed by ‘combining database-derived peptide motifs’, consisting of frequently used residues. Using the motifs consisting of only residues Gly, Leu and Lys, a second peptide was designed. […] Third, new peptides can be designed based on ‘amino acid percentages obtained from statistical analysis of antimicrobial peptides’ from a specific kingdom or peptide family. Thus, a third peptide was designed in three steps. (i) The amino acid composition for MULTI-18 was obtained by multiplying the percentage of each residue with the total number of residues (18 here) in the target peptide. […] (iii) Multiple peptides can be obtained by combining the above motifs. Only one peptide was designed by following the amphipathic pattern for helical peptides.

[5] = test system: methicin-resistant Staphylococcus aureus (MRSA) USA-300
Excerpt: as §2

[6] = test system: HIV; details: literature; cited from earlier work
[7] = Table 4, LL-37-derived peptides, CEM-SS cells

Cc1cn([C@H]2C[C@H](N=[N+]=[N-])[C@@H](CO)O2)c(=O)[nH]c1=O [AZT, reference compound]
EC50 ([1]; Human immunodeficiency virus 1): 0.007 µM
EC50 ([1]; Human immunodeficiency virus 1, CEM-SS): 0.007 µM
CC50 at 6 days [2]: > 0.5 µM
CC50 ([3]; human, 6 days): > 0.5 µM

CC[C@H](C)[C@H](NC(=O)[C@H](CCCNC(=N)N)NC(=O)[C@H](CCC(N)=O)NC(=O)[C@@H](NC(=O)[C@@H](NC(=O)[C@H](CCCNC(=N)N)NC(=O)[C@H](CCCCN)NC(=O)[C@H](Cc1ccccc1)NC(=O)CN)[C@@H](C)CC)C(C)C)C(=O)N[C@@H](CCCCN)C(=O)N[C@@H](CC(=O)O)C(=O)N[C@@H](Cc1ccccc1)C(=O)N[C@@H](CC(C)C)C(=O)N[C@@H](CCCNC(=N)N)C(=O)N[C@@H](CC(N)=O)C(=O)N[C@@H](CC(C)C)C(=O)N[C@H](C(N)=O)C(C)C [GF-17]
CC50 at 6 days [2]: 8.9 µM
CC50 at 144 h ([2]; CEM-SS cells): 18.7 µg/mL (≈ 8.9 µM)
CC50 [3]: 10.8 µM

GLKKLLGKLLKKLGKLLLK [GLK-19]
EC50 ([1]; 1IIIB): > 47.5 µM
CC50 [3]: 25.1 µM
IC50 ([4]; K12): 10 µM
IC50 ([5]; USA-300): 160 µM

KKLLKKLKKLLK [KL-12]
inactive against E. coli K12 until [4]: > 160 mM
inactive against MRSA USA-300 until [5]: > 160 mM

RLFDKIRQVIRKF-NH2 [Retro-FK13]
EC50 [1, 7]: > 58.1 µM
CC50 at 6 days [2]: 33.7 µM

SKEKIGKEFKRIVQRIKDFLR [SK-21]
anti-HIV activity in words [1]: active against HIV
EC50 ([1]; >100 μg/ml defined as HIV inactive): 28.5 µg/mL
EC50 [1, 7]: 10.8 µM
CC50 at 6 days ([2]; CEM-SS cells): 22.5 µM

indolicidin (ILPWKWPWWPWRR; ends and bridges not checked; UniProt P33046 131-143, looked up) [bovine Trp- and Pro-rich cathelicidin peptide]
concentration required to be effective against HIV [6]: 333 µg/mL
